Source: patent US20230124862A1, “BISMUTH THIOL COMPOUNDS AND COMPOSITIONS AND METHODS OF TREATING MICROBIAL CO-INFECTIONS” (Microbion Corporation, priority 2020, published 2023)
≈ marks a conversion by molar mass, not a printed value. Like-named read-outs stand apart in the source and are kept apart here. Marks after values point to notes of the source that are not given here.

Key:
[1] = system: Aspergillus spp.; test: Antifungal broth microdilution (Example 13); type: cell-based, A. niger, A. terreus, A. fumigatus, A. flavus; settings: for MEC at 48 hr: complete inhibition (MIC0) not observed
[2] = system: E. coli ATCC 25922; test: MIC control strain; settings: QC organism, Example 13
[3] = system: Gram-positive organisms (S. aureus, S. pneumoniae); settings: cited from earlier work
[4] = system: Enterobacteriaceae; settings: E. coli (MMX 102), QC; cited from earlier work
[5] = system: Acinetobacter baumannii; test: Broth microdilution MIC (Example 12); type: cell-based

CC(S)C(C)S.[Bi] (centres unmarked) [BisBDT, bismuth-2,3-butanedithiol]
MIC ([1]; 24 h, A. flavus ATCC 22546, complete inhibition, 24 hr, read-out: MIC0 24 hr): 1 µg/mL | MIC ([1]; 24 h, A. flavus ATCC 204304, complete inhibition, 24 hr, read-out: MIC0 24 hr): 4 µg/mL | MIC ([1]; 24 h, A. flavus MMX 7935, complete inhibition, 24 hr, read-out: MIC0 24 hr): 8 µg/mL | MIC ([1]; 24 h, A. fumigatus ATCC 204305, complete inhibition, 24 hr, read-out: MIC0 24 hr): 8 µg/mL | MIC ([1]; 24 h, A. fumigatus ATCC MYA-3626, complete inhibition, 24 hr, read-out: MIC0 24 hr): 2 µg/mL | MIC ([1]; 24 h, A. fumigatus MMX 5934, complete inhibition, 24 hr, read-out: MIC0 24 hr): 2 µg/mL | MIC ([1]; 24 h, A. fumigatus MMX 5939, complete inhibition, 24 hr, read-out: MIC0 24 hr): 2 µg/mL | MIC ([1]; 24 h, A. terreus MMX 8229, complete inhibition, 24 hr, read-out: MIC0 24 hr): 0.25 µg/mL | MIC ([1]; 48 h, A. flavus ATCC 22546, complete inhibition, 48 hr, read-out: MIC0 48 hr): 2 µg/mL | MIC ([1]; 48 h, A. flavus MMX 7935, complete inhibition, 48 hr, read-out: MIC0 48 hr): 8 µg/mL | MIC ([1]; 48 h, A. fumigatus ATCC MYA-3626, complete inhibition, 48 hr, read-out: MIC0 48 hr): 4 µg/mL | MIC ([1]; 48 h, A. fumigatus MMX 5939, 48 hr, cell marked footnote b, read-out: MIC0 48 hr): 4 µg/mL | MIC ([1]; 48 h, A. terreus MMX 8229, complete inhibition, 48 hr, read-out: MIC0 48 hr): 1 µg/mL | MEC at 48 hr ([1]; A. flavus ATCC 204304, 48 hr): 4/4^a μg/mL | MIC 48 hr ([1]; A. flavus ATCC 204304, 48 hr, cells marked footnote c (not given; Table 109 gives the 48 hr results as MEC)): 4^c | MEC at 48 hr ([1]; A. fumigatus ATCC 204305, 48 hr): 4 µg/mL | MIC 24 hr ([1]; A. fumigatus ATCC MYA-3626, 24 hr): 2 µg/mL | MIC 48 hr ([1]; A. fumigatus ATCC MYA-3626, 48 hr): 4 µg/mL | MEC at 48 hr ([1]; A. fumigatus MMX 5934, 48 hr): 4 µg/mL | MIC ([1]; A. niger ATCC 29508, complete inhibition, […], read-out: MIC0 48 hr): 2 µg/mL | MIC 24 hr [2]: 0.5^a

C1C[S][Bi]([S]CC[S][Bi]2[S]CC[S]2)[S]1 [BisEDT, Bismuth-1,2-ethanedithiol]
CLSI acceptable MIC QC range ([3]; S. aureus ATCC 29213): (0.12-1) μg/mL | CLSI acceptable MIC QC range ([3]; S. pneumoniae ATCC 49619): (0.12-1) μg/mL

C[C@@H](O)[C@H]1C(=O)N2C(C(=O)O)=C(S[C@@H]3CN[C@H](C(=O)N(C)C)C3)[C@H](C)[C@H]12 [MEM]
CLSI Quality Control Range (MIC) [4]: (0.008-0.06) μg/mL | MIC ([5]; A. baumannii CDC 273, ESBL/OXA): >8 µg/mL | MIC ([5]; A. baumannii CDC 274, ESBL/OXA): >8 µg/mL | MIC ([5]; A. baumannii CDC 275, ESBL/OXA): >8 µg/mL | MIC ([5]; A. baumannii CDC 277, ESBL/OXA): >8 µg/mL | MIC ([5]; A. baumannii CDC 284, ESBL/OXA): >8 µg/mL | MIC ([5]; A. baumannii CDC 307, OXA): 8 µg/mL (≈ 20.9 µM) | MIC ([5]; A. baumannii CDC 308, ESBL/OXA): 8 µg/mL (≈ 20.9 µM) | MIC ([5]; A. baumannii CDC 311, OXA): >8 µg/mL | MIC ([5]; A. baumannii CDC 312, OXA): 4 µg/mL (≈ 10.4 µM) | MIC ([5]; A. baumannii CDC 313, ESBL/OXA): >8 µg/mL | MIC ([5]; A. baumannii NCTC 13304, OXA): >8 µg/mL
